Patent US20220054494A1, “METHODS FOR TREATING BLADDER AND URETHRA DYSFUNCTION AND DISEASE” (University of Pittsburgh - Of the Commonwealth System of …, priority 2019, published 2022)
“Also recorded” adds a separate entry of the source.

Assays:
[1] = Jackson et al., J Pharmacol Exp Ther 2016; cited from earlier work
[2] = test system: deoxycorticosterone/salt-induced hypertension; conditions: chronic oral treatment of rats; Jackson et al. 2016; cited from earlier work
aged rats [3] = assay: Voiding analysis in metabolic cages, aged rats; assay type: in vivo, rat; conditions: aged rats; intravesical 5 μM forodesine plus 10 μM DEA-NONOate, 3 weeks of treatment; vs aged control rats
Procedure: Experimental design: Young (3 months of age) and aged (25 to 30 months of age) Fisher 344 rats were used in these experiments. Some of the aged Fisher 344 rats were treated with 8-AG (5 mg kg/day via drinking water) for 1 month.
Voiding analysis: Rats were placed in metabolic cages for 24 hr (once per week for the duration of the study). Voided urine was collected in cups attached to force displacement transducers (GRASS TECHNOLOGIES®, Warwick, R.I.) connected to a computer running WINDAQ™ data acquisition software (DATAQ™ Instruments Inc., Akron, Ohio). Data were averaged for 24 h, and voiding frequency, total voided volume, and volume per void were analyzed. Voiding frequency was calculated as the number of voiding events per hour during 24 h, and volume per void, which defines bladder capacity, was calculated as an average of the voids occurring during these periods.
Animals: Male and female Fisher 344 rats were employed (Charles River; Wilmington, Mass. and the NIA rodent colony). Some rats were young (3 months of age), some were aged (25-30 months of age), and others were aged and treated with oral 8-AG (5 mg/kg/day; 6 weeks). Under isoflurane anesthesia and using an aseptic technique, an incision was made into the lower abdomen and in the scapular area. Sterile PE50 tubing was threaded subcutaneously from the lower abdomen to the scapular area and connected to a one-channel vascular access button (Intech Laboratories, Plymouth Meeting, Pa.). In the abdomen, the tubing was inserted into the bladder and secured with a small purse-string suture. The incisions were closed, and the animals were allowed to recover for 7-10 days before further experimentation. Animals were divided into three groups. A control group of aged rats received daily infusions with 10 μM DEA-NONOate (SIGMA-ALDRICH®, St. Louis, Mo.) in sterile 0.9% saline. A second group received 100 μM 8-AG plus 10 μM DEA-NONOate in 0.9% saline, and a third group received 5 μM forodesine (SIGMA-ALDRICH®) plus 10 μM DEA-NONOate in 0.9% saline. Bladders were instilled via a catheter tether kit (Instech Laboratories) connected to a syringe pump for continuous infusion (rate 200 μl/min; 30 minutes/daily) for 3-6 weeks. The Institutional Animal Care and Use Committee approved all procedures. The investigation conforms to the Guide for the Care and Use of Laboratory Animals published by the US National Institutes of Health (NIH Publication No. 85-23, revised 1996).
Protocol 1: Young, aged, and 8-AG-treated aged rats were placed in metabolism cages for 24 hr once per week. The light cycle was from 7:00 AM to 7:00 PM, and food and water were provided ad libitum. Voided urine was collected in cups attached to force displacement transducers (GRASS TECHNOLOGIES®, Warwick, R.I.) that were connected to a computer running Windaq data acquisition software (DATAQ® Instruments I2nc., Akron, Ohio). Data were averaged for 24 h and analyzed for 12-h periods during the day (7:00 AM-7:00 PM) and night (7:00 PM-7:00 AM). Voiding frequency, total voided volume, and volume per void were analyzed. Voiding frequency was calculated as the number of voiding events per hour during 24 h and during the 12-h day and 12-h night periods. Volume per void, which defines bladder capacity, was calculated as an average of the voids occurring during these periods.
Voiding Analysis: Young, aged, and 8-AG-treated aged rats were placed in metabolic cages (24 hr; once per week) for the duration of the study. The light cycle was from 7:00 AM to 7:00 PM, and food and water were provided ad libitum. Voided urine was collected in cups attached to force displacement transducers (Grass Technologies, Warwick, R.I.) connected to a computer (Windaq data acquisition software DATAQ Instruments Inc., Akron, Ohio). Data were averaged for 24 h and analyzed for 12-h periods during the day (7:00 AM-7:00 PM) and night (7:00 PM-7:00 AM). Voiding frequency, total voided volume, and volume per void were analyzed. […]

aged rats [4] = assay: Voiding analysis in metabolic cages, aged rats; assay type: in vivo, rat; conditions: aged rats; intravesical 5 μM forodesine plus 10 μM DEA-NONOate, 3 weeks of treatment; vs aged control rats; remark: listed apart in the source

| SMILES | diuresis [1] | glucosuria [1] | natriuresis [1] | potassium excretion [1] | development of deoxycorticosterone/salt-induced hypertension [2] | voided volume (aged rats [3]) | voiding frequency (aged rats [3]) | inter-contraction interval (aged rats [4]) |
| --- | --- | --- | --- | --- | --- | --- | --- | --- |
| Nc1nc2c(nc(N)n2[C@@H]2O[C@H](CO)[C@@H](O)[C@H]2O)c(=O)[nH]1 [8-aminoguanosine, 8-Aminoguanosine, reference compound] | induce | induce | induce | reduce | attenuate |  |  |  |
| O=c1[nH]cnc2c([C@@H]3N[C@H](CO)[C@@H](O)[C@H]3O)c[nH]c12 [forodesine, 7-[(2S,3S,4R,5R)-3,4-dihydroxy-5-(hydroxymethyl)pyrrolidin-2-yl]-3H,4H,5H-pyrrolo[3,2-d]pyrimidin-4-one, reference compound] |  |  |  |  |  | significant improvement; also recorded: significantly attenuates | significant improvement; also recorded: significantly attenuates | significant improvement; also recorded: significantly attenuates |
